Results reported in PMC6271218, “Pharmacokinetics, Tissue Distribution and Excretion of Verticinone from F. hupehensis in Rats” (Molecules, 2014).
Like-named read-outs stand apart in the source and are kept apart here.

Experiment: Excretion study (urine, bile, feces) after oral dose
Format: in vivo, SD rats
Details: for dose excreted: SD, rat, faeces, oral, read-out: recovery from feces; for dose excreted / cumulative excreted fraction in bile (% of administered dose) / cumulative excreted fraction in feces (% of administered dose) / unchanged verticinone excreted from urine and feces / cumulative excreted fraction in urine (% of administered dose): i.g. 2 mg/kg; for dose excreted as unchanged parent compound: 2 mg/kg oral dose; for cumulative excreted fraction in bile (% of administered dose): bile 24 h; for cumulative excreted fraction in feces (% of administered dose): feces 36 h; for cumulative excreted fraction in urine (% of administered dose): unchanged verticinone
Protocol: Ten rats were housed separately in metabolic cages and received a single oral dose of 2 mg/kg verticinone. Urine was collected at 0, 4, 8, 12, and 24 h for female rats and at 0, 4, 8, 12, 24, 36 h for male rats. Feces were collected at 0, 12, 24, and 36 h for female rats and at 0, 8, 12, 24, 36 h for male rats. The volume of urine samples was measured before storage at −20 °C. Feces were weighted and homogenized in 5 volumes (v/w) of 50% methanol/50% water and stored at −20 °C until analysis. In addition, ten rats were anesthetized with ether and then the bile ducts were cannulated with polyethylene tube. The rats also received a single oral dose of 2 mg/kg verticinone. Bile was collected at 0, 2, 4, 6, 8, 12, and 24 h after dosing and stored at −20 °C until analysis. Verticinone was extracted from urine, feces and bile samples based on the method described for tissue samples.
The quantification of verticinone was performed by a LC-MS method based on the previously reported method with slight modifications. The liquid chromatography system consisted of a model 2010 chromatograph (Shimadzu, Kyoto, Japan) equipped with a Shim-Pack VP-ODS C18 column (150 mm × 2.0 mm, 5 μm). A Shimadzu 2010 mass spectrometer (Q-array-Octapole-Quadrupole mass analyzer) equipped with an electrospray ionization interface was used for MS detection. The mobile phase consisted of (A) distilled water and (B) methanol, and the flow rate was 0.2 mL/min. Chromatography separation was achieved using a gradient elution program, as follows: 0.03→6.0 min, B% 15→85; 6.0→7.0 min, B% 85→85; 7.0→8.0 min, B% 85→15; 8.0–12.0 min, B% 15→15. The column and autosampler tray temperature were kept constant at 35 °C and 20 °C, respectively. For the determination of verticinone, the positive mode was selected, along with the conditions as follows.
CDL voltage […], probe voltage 4.5 kV, CDL temperature 250 °C, block temperature 200 °C, gas flow 1.5 L/min. Hupehenine was used as the internal standard (IS). Both verticinone and IS were detected using selected ion monitoring (SIM) at m/z 430.25 for verticinone and m/z 416.30 for hupehenine (IS), with a dwell time of 200 ms. Blank plasma, tissue homogenate, urine, feces homogenate and bile were used to prepare the corresponding calibration curves to avoid different matrix effects.

## C[C@H]1CC[C@@H]2N(C1)C[C@H]1[C@@H]3C[C@H]4[C@@H](CC(=O)[C@H]5C[C@@H](O)CC[C@@]54C)[C@@H]3CC[C@@H]1[C@]2(C)O [verticinone, Verticinone]
Female rats
  dose excreted: < 1%
  dose excreted as unchanged parent compound: less than 1%
  cumulative excreted fraction in bile (% of administered dose): 0.02% ± 0.01
  cumulative excreted fraction in feces (% of administered dose): 0.42% ± 0.29
  unchanged verticinone excreted from urine and feces: 0.6%
Male rats
  dose excreted: < 1%
  dose excreted as unchanged parent compound: less than 4%
  cumulative excreted fraction in bile (% of administered dose): 0.31% ± 0.21
  cumulative excreted fraction in feces (% of administered dose): 0.92% ± 0.53
  unchanged verticinone excreted from urine and feces: about 3.4%
Female rats, urine 24 h
  cumulative excreted fraction in urine (% of administered dose): 0.23% ± 0.05
Male rats, urine 36 h
  cumulative excreted fraction in urine (% of administered dose): 2.50% ± 0.98
